# Measured values reported in patent US9169254B2, “Spiroimidazolone derivative” (Chugai Seiyaku Kabushiki Kaisha, priority 2009, dated 2015).
# Target: T1, human PTH1 receptor (Homo sapiens, UniProt Q03431)
# T1 sequence (Q03431 27-593): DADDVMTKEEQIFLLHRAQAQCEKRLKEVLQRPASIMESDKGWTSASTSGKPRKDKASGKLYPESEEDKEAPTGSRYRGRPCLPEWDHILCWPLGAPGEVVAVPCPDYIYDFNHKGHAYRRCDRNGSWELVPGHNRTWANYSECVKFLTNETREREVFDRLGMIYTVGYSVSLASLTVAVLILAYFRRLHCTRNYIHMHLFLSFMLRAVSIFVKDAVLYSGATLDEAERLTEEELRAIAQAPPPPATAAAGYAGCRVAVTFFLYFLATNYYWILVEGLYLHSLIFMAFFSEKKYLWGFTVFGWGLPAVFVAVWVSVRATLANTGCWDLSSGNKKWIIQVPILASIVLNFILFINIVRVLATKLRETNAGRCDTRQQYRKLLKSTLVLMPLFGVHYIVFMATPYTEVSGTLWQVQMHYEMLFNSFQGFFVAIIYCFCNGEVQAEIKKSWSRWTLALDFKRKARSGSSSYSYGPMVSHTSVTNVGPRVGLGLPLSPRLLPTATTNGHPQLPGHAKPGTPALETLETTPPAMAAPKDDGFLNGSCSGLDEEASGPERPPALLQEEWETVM
# Experiment: In vitro cAMP signal activity in HKRK-B7 cells (LLC-PK1 cells overexpressing the human PTH1 receptor)
# Assay type: cell-based
# Settings: HKRK-B7 cells; compound at 1×10^−3 M; cAMP produced as percentage of that produced by hPTH(1-34) at 100 nM
row,Structure (SMILES),cAMP production activity (%)
1,"Cc1cc(C(=O)N(C)C)ccc1CCS(=O)(=O)N1CCC2(CC1)N=C(c1cc(C(F)(F)F)ccc1Cl)NC2=O [Compound 85, 4-{2-[2-(2-chloro-5-trifluoromethyl-phenyl)-4-oxo-1,3,8-triaza-spiro[4.5]dec-1-ene-8-sulfonyl]-ethyl}-3,N,N-trimethyl-benzamide]",76
2,"O=C1NC(c2cccc(OC(F)(F)F)c2)=NC12CCN(S(=O)(=O)/C=C/c1cc(Cl)c(OCCC(O)CO)cc1Cl)CC2 (centres unmarked) [Compound 234, 8-{(E)-2-[2,5-dichloro-4-(3,4-dihydroxy-butoxy)-phenyl]-ethenesulfonyl}-2-(3-trifluoromethoxy-phenyl)-1,3,8-triaza-spiro[4.5]dec-1-en-4-one]",78
3,"Cc1cc(C(=O)N2CCC(O)(CF)CC2)cc(C)c1/C=C/S(=O)(=O)N1CCC2(CC1)N=C(C1CCC(CCC(F)(F)F)CC1)NC2=O (centres unmarked) [Compound 990, 8-{(E)-2-[4-(4-fluoromethyl-4-hydroxy-piperidine-1-carbonyl)-2,6-dimethyl-phenyl]-ethenesulfonyl}-2-[4-(3,3,3-trifluoro-propyl)-cyclohexyl]-1,3,8-triaza-spiro[4.5]dec-1-en-4-one]",87
4,"Cc1cc(C2=NC3(CCN([S@TB17](=O)(=O)/C=C/c4c(C)cc(C(=O)N5CCC(C)(O)CC5)cc4C)CC3)C(=O)N2)ccc1F [Compound 1098, 2-(4-fluoro-3-methyl-phenyl)-8-{(E)-2-[4-(4-hydroxy-4-methyl-piperidine-1-carbonyl)-2,6-dimethyl-phenyl]-ethenesulfonyl}-1,3,8-triaza-spiro[4.5]dec-1-en-4-one]",88
5,"Cc1cc(N(C)C(N)=O)cc(C)c1CC1(S(=O)(=O)N2CCC3(CC2)N=C(c2cccc(OC(F)(F)F)c2)NC3=O)CC1 [Compound 1084, 1-(3,5-Dimethyl-4-{1-[4-oxo-2-(3-trifluoromethoxy-phenyl)-1,3,8-triaza-spiro[4.5]dec-1-ene-8-sulfonyl]-cyclopropylmethyl}-phenyl)-1-methyl-urea]",13
6,"O=C1NC(c2cccc(C(F)(F)F)c2)=NC12CCN(S(=O)(=O)c1cc3ccccc3s1)CC2 [Compound 68, 8-(benzo[b]thiophene-2-sulfonyl)-2-(3-trifluoromethyl-phenyl)-1,3,8-triaza-spiro[4.5]dec-1-en-4-one]",51
7,"CC(=O)Nc1ccc(CCS(=O)(=O)N2CCC3(CC2)N=C(C2CCC(CCCCl)CC2)NC3=O)c(C)c1 (centres unmarked) [Compound 1065, N-[4-(2-{2-[4-(3-chloro-propyl)-cyclohexyl]-4-oxo-1,3,8-triaza-spiro[4.5]dec-1-ene-8-sulfonyl}-ethyl)-3-methyl-phenyl]-acetamide]",83
8,"Cc1cc(S(N)(=O)=O)ccc1/C=C/S(=O)(=O)N1CCC2(CC1)N=C(c1cccc(C(F)(F)F)c1)NC2=O [Compound 213, 3-methyl-4-{(E)-2-[4-oxo-2-(3-trifluoromethyl-phenyl)-1,3,8-triaza-spiro[4.5]dec-1-ene-8-sulfonyl]-vinyl}-benzenesulfonamide]",74
9,"Cc1cc(C(=O)N(C)C)cc(C)c1/C=C/S(=O)(=O)N1CCC2(CC1)N=C(C1CCC(C)CC1)NC2=O (centres unmarked) [Compound 1003, 3,5,N,N-tetramethyl-4-{(E)-2-[2-(4-methyl-cyclohexyl)-4-oxo-1,3,8-triaza-spiro[4.5]dec-1-ene-8-sulfonyl]-vinyl}-benzamide]",67
10,"O=C1NC(C2CCCCC2)=NC12CCN(S(=O)(=O)/C=C/c1ccc3[nH]ccc3c1)CC2 [Compound 178, 2-Cyclohexyl-8-[(E)-2-(1H-indol-5-yl)-ethenesulfonyl]-1,3,8-triaza-spiro[4.5]dec-1-en-4-one]",29
11,"Cc1cc(C(=O)N(C)C)ccc1CCS(=O)(=O)N1CCC2(CC1)N=C(c1cccc(-c3ccccc3)c1)NC2=O [Compound 172, 4-[2-(2-biphenyl-3-yl-4-oxo-1,3,8-triaza-spiro[4.5]dec-1-ene-8-sulfonyl)-ethyl]-3,N,N-trimethyl-benzamide]",102
